One data set relates to Hepatitis B virus. The data set can be described thus: Antiviral activity against HBV infected in human HepG2 cells expressing hNTCP-C4 assessed as viral envelope surface protein secretion treated for 16 hrs followed by compound washout measured after 12 days by ELISA. Format: functional, organism-based. A general note: ELISA stands for enzyme-linked immunosorbent assay.
Data set [1] can be described thus: Cytotoxicity against human HepG2 cells expressing hNTCP-C4 assessed as cell viability by MTT assay. Format: cell-based. Set-up: concentration or dose not given beside the values. The conditions noted are these: read-out: Activity.

For orientation: IC50 means the midpoint of a concentration-inhibition curve.

For the compound `CCC(=O)Cc1cc(=O)c2c(C)cc(O)cc2o1`, the 50% inhibitory concentration (IC50) with Hepatitis B virus is 72.4 µM. Also, in data set [1], the viability was more than 90%.
Consider `CCC(C)CC(C)C(=O)OC1(C)C(=O)Cc2cc(O)c3c(c2C1=O)C[C@@H](O)C[C@H]3C` (stereo not given in full), for which, in the data set on Hepatitis B virus, the IC50 stood at 91.2 µM. The viability in data set [1] was more than 90%.
The matching figures for `CCC(C)CC(C)C(=O)OC1(C)C(=O)c2c(cc(O)c3c2C[C@@H](O)C[C@H]3C)C(C)(O)C1=O` (stereo not given in full): 10.5 µM and more than 90%.
With `Cc1cccc(O)c1C(=O)Cc1c(C=O)cc(O)c(C)c1O`, the IC50 in the data set on Hepatitis B virus worked out at 51.4 µM. The viability in data set [1] was more than 90%.
Taken in the same sequence, the figures for `CCC(=O)CC1(O)CC(=O)c2c(C)cc(O)cc2O1` (stereo not given) were 52.1 µM and more than 90%.
